Measurements published in US6048529A, “PVA or PEG conjugates of peptides for epitope-specific immunosuppression” (priority 1995, dated 2000).
“Also recorded” adds a separate entry of the source. Where a SMILES comes first, the peptide text is derived from it. Bridges are numbered along the chain shown (N, C = ends). Where no end group is shown, it is not given here.

Assays:
[1] = test system: experimental autoimmune myasthenia gravis (EAMG); assay: Electrophysiological EAMG: EMG during repetitive nerve stimulation after immunization with Torpedo AChR; format: in vivo, C57/BL6 mice; conditions: for proportion of mice showing a decremental response greater than 10%: 5 μg i.p. at 11, 7 and 3 days before immunization with Torpedo AChR, EMG on days 38-39
Protocol: Six weeks old C57/BL6 mice were purchased from Charles River Breeding Laboratories (Wilmington, Mass.). Preimmune sera were obtained from the mice for use as controls in subsequent antibody binding assays. […] Then, on day 0, the mice were immunized subcutaneously in one hind footpad and intramuscularly in the same side shoulder with 20 μg of Torpedo AChR in 100 μl emulsion containing equal volumes of complete Freund's adjuvant and PBS. Thirty days later, the mice were immunized with a similar dose of the receptor in the opposite footpad and shoulder. On the 37th day, test bleeds were obtained from the mice for determination of the antibody titers. Electrophysiological studies were performed on the 38th and 39th days. Finally, the mice were sacrificed on the 40th day and lymph node cells were obtained for Electrophysiological Studies To document the electrophysiological evidence of EAMG, amplitudes of serial muscle action potentials were measured by electromyography (EMG) during the repetitive stimulation of the nerve in immunized mice, using the Mystro EMG system (TECA Corporation). A pair of wire electrodes were surgically implanted, encircling the sciatic nerve, two days before EMG. The nerve was stimulated through the implanted electrodes by 3 Hz trains of supramaximal electric current with a duration of 200 microseconds. The corresponding muscle action potentials were recorded with an electrode subcutaneously inserted over the gastrocnemius muscle. A reference electrode was placed at the ankle. Ether inhalation was used during the surgical and recording procedures. […] Students' t-test was used to analyze the differences of amplitude changes between the two groups. A typical myasthenic response of a greater than 10% decrement was considered to constitute an electrophysiological evidence of EAMG. The frequency of electrophysiological EAMG was calculated in each group and analyzed by chi-square test.

[2] = test system: peptide α125-148; assay: Radioimmunoassay of anti-AChR antisera: antibody binding to peptide α125-148; format: in vivo, C57/BL6 mice; conditions: for binding to peptide α125-148 of antibodies in pooled antisera at serial dilutions (in words): pooled antisera of each group, compared with the other groups
Protocol: (§1) Six weeks old C57/BL6 mice were purchased from Charles River Breeding Laboratories (Wilmington, Mass.). Preimmune sera were obtained from the mice for use as controls in subsequent antibody binding assays. After 2-weeks rest, the mice were divided into three groups which received, at eleven, seven and three days before immunization with AChR, an intraperitoneal injection (5 μg in 25 μl of PBS) of either the mPEG-(α125-148) conjugate (Group 1), mPEG-nonsense peptide conjugate (Group 2) or unaltered free peptide α125-148 (Group 3) (FIG. 5). Then, on day 0, the mice were immunized subcutaneously in one hind footpad and intramuscularly in the same side shoulder with 20 μg of Torpedo AChR in 100 μl emulsion containing equal volumes of complete Freund's adjuvant and PBS. Thirty days later, the mice were immunized with a similar dose of the receptor in the opposite footpad and shoulder. On the 37th day, test bleeds were obtained from the mice for determination of the antibody titers. Electrophysiological studies were performed on the 38th and 39th days. Finally, the mice were sacrificed on the 40th day and lymph node cells were obtained for
One mg of the synthetic peptide was dissolved in 50 μl dimethylformamide and then diluted with PBS to 25 μg/ml. A solution of Torpedo AChR in PBS was prepared to contain 2.5 μg/ml. Aliquots (50 μl/well) of the peptide or AChR solutions were added to a 96-well microtiter plate (Falcon Micro Test III flexible assay plate, Becton Dickinson, Oxcard, Calif.) and the plates were incubated at room temperature overnight. After washing 3 times with PBS, the plates were blocked with 0.25% bovine serum albumin (BSA) in PBS (50 μl/well) at 37° C. for 90 minutes. The plates were washed again 5 times with PBS and to each well was added 50 μl of the serum from AChR-immunized mice, pre-diluted with PBS containing 0.10% BSA, and the plates were covered and allowed to stand at room temperature overnight. After 5 washes with PBS, 50 μl of rabbit IgG antibodies (2.5 μg/ml) against mouse IgG and IgM (Accurate Chemical Scientific Corporation, Westbury, N.Y.) was added to each well and the plates were incubated at 37° C. for 3 hours. The plates were then washed 5 times with PBS and ^125 I-labeled protein A (2×10^5 cpm in 50 μl of PBS-0.1% BSA) was added to each well. The plates were incubated for 3 hours at room temperature, after which they were washed and the wells were cut out and counted for bound radioactivity. Pre-immune serum samples, obtained from the mice prior to any experimental treatments, were used as controls to correct for non-specific binding.

[3] = test system: whole Torpedo AChR; assay: Radioimmunoassay of anti-AChR antisera: antibody binding to whole AChR; format: in vivo, C57/BL6 mice; conditions: anti-AChR antisera of pretreated mice, versus control groups
Protocol: as §1, with “Finally, the mice were sacrificed on the 40th day and lymph node cells were obtained for” left out
(§2) One mg of the synthetic peptide was dissolved in 50 μl dimethylformamide and then diluted with PBS to 25 μg/ml. […] The plates were incubated for 3 hours at room temperature, after which they were washed and the wells were cut out and counted for bound radioactivity. […]

[4] = test system: peptide α45-60; assay: Radioimmunoassay of anti-AChR antisera: antibody binding to peptide α45-60; format: in vivo, C57/BL6 mice; conditions: anti-AChR antisera of pretreated mice, versus control groups
Protocol: as §1, with “Finally, the mice were sacrificed on the 40th day and lymph node cells were obtained for” left out
as §2

[5] = test system: peptide α182-198; assay: Radioimmunoassay of anti-AChR antisera: antibody binding to peptide α182-198; format: in vivo, C57/BL6 mice; conditions: anti-AChR antisera of pretreated mice, versus control groups
Protocol: as §1, with “Finally, the mice were sacrificed on the 40th day and lymph node cells were obtained for” left out
as §2

[6] = test system: lymph node cells (LNC); assay: T cell proliferation assay of lymph node cells from pretreated, AChR-primed mice; format: in vivo, C57/BL6 mice; conditions: LNC 5×10^5 cells/well from pretreated mice after AChR immunization
Protocol: as §1, with “Thirty days later, the mice were immunized with a similar dose of the receptor in the opposite footpad and shoulder. On the 37th day, test bleeds were obtained from the mice for determination of the antibody titers. Electrophysiological studies were performed on the 38th and 39th days. Finally, the mice were sacrificed on the 40th day and lymph node cells were obtained for” left out
Lymph node cells (LNC) were harvested from the AChR-primed mice of each group ten or eleven days after the last AChR immunization. […] The number of viable cells was determined by vital staining with fluorescein diacetage (Rotman and Papermasters, 1966). […] After incubation for 3 days at 37° C. in a humidified air/CO2 (19:1) atmosphere, the cultures were pulsed (18 hr) with 1 μCi/well [^3 H]-thymidine (Research Products International, Mount Prospect, Ill,) and then harvested on to glass microfiber filters (Whatman, Clinton, N.J.) for counting of radioactivity by liquid scintillation.

[7] = in vivo; cited from earlier work
[8] = anti-AChR antisera of pretreated mice

CC[N+](C)(C)c1cccc(O)c1 [edrophonium chloride, reference compound]
decremental amplitude after edrophonium chloride ([1]; EAMG-positive mouse with -33% decrement, 3 minutes after i.p. injection of 250 μg, 3 Hz stimulation): -13% | effect on the typical myasthenic decremental response (in words) ([1]; i.p. injection of 250 μg): reversible

CC[C@H](C)[C@H](NC(=O)CNC(=O)[C@H](CC(C)C)NC(=O)[C@H](CCCCN)NC(=O)[C@H](CCSC)NC(=O)[C@@H](NC(=O)[C@@H]1CSSC[C@H](NC(=O)[C@H](Cc2ccc(O)cc2)NC(=O)[C@H](CO)NC(=O)[C@@H](N)CCCCN)C(=O)N[C@@H](CCC(=O)O)C(=O)N[C@@H]([C@@H](C)CC)C(=O)N[C@@H]([C@@H](C)CC)C(=O)N[C@@H](C(C)C)C(=O)N[C@@H]([C@@H](C)O)C(=O)N[C@@H](Cc2c[nH]cn2)C(=O)N[C@@H](Cc2ccccc2)C(=O)N2CCC[C@H]2C(=O)N[C@@H](Cc2ccccc2)C(=O)N[C@@H](CC(=O)O)C(=O)N[C@@H](CCC(N)=O)C(=O)N[C@@H](CCC(N)=O)C(=O)N[C@@H](CC(N)=O)C(=O)N1)[C@@H](C)O)C(=O)O [free α125-148, reference compound] (H-KSYCEIIVTHFPFDQQNCTMKLGI-OH; disulfide 4-18)
proportion of mice showing a decremental response greater than 10% [1]: 56% | antibody response against peptide α125-148 (in words) [2, 8]: no decrease | binding to peptide α125-148 of antibodies in pooled antisera at serial dilutions (in words) [2]: consistently greater than the other two controls

mPEG-(α125-148): monomethoxypolyethylene glycol (MW 5000) succinate coupled to the N-terminal α-NH2 of Torpedo californica AChR peptide α125-148 ({mPEG 5000 succinate}-KSYCEIIVTHFPFDQQNCTMKLGI; disulfide 4-18 (inferred); UniProt P02710 149-172, looked up, fragment)
proportion of mice showing a decremental response greater than 10% [1]: 20% | effect on development of electrophysiological EAMG (in words) ([1]; injection before immunization with whole Torpedo AChR): suppresses development of electrophysiological EAMG but the suppression was incomplete; also recorded: suppressed the development of electrophysiological EAMG; also recorded: suppressed the development of experimental autoimmune myasthenia gravis (EAMG) | antibody response against peptide α125-148 (in words) [2, 8]: significantly decreased; also recorded: specific decrease | antibody binding to peptide α125-148, mean net cpm±standard deviation ([2]; anti-AChR antisera of pretreated mice, test bleed day 37): 1414 ±1801 cpm | binding to peptide α125-148 of antibodies in pooled antisera at serial dilutions (in words) [2]: considerably lower antibody binding; also recorded: consistently lower | antibody response against whole AChR (in words) [3]: no significant suppression; also recorded: not significantly different; also recorded: not altered | antibody response against peptide α45-60 (in words) [4]: no significant suppression; also recorded: not significantly different | antibody response against peptide α182-198 (in words) [5]: no significant suppression; also recorded: not significantly different | T cell proliferative responses to peptide α125-148, AChR α-chain peptides or whole AChR (in words) [6]: did not show meaningful differences; also recorded: not detected; also recorded: no detectable changes

monomethoxypolyethylene glycol [mPEG]
harmful or toxic effects in humans (in words) [7]: does not seem to have any harmful or toxic effects
